Test results published in US6537754B1, “Association of kinesin with sensitivity to chemotherapeutic drugs” (Board of Trustees of the University of Illinois, priority 1990, dated 2003).
Starred links: 1 amine or outer side, 2 acyl side, 3 side chain; linkers in the order of their positions; H or OH if unused. Positions of bridges follow the written chain, without caps; N, C: chain ends. Non-standard residues stand in square brackets, D forms with d. Residues, ends and D or L forms follow the SMILES beside them. Chains are numbered I, II in the order given. Actinocin(9to1) = Cc1c2oc3c(C)ccc(C(=O)[*:1])c3nc-2c(C(=O)[*:2])c(N)c1=O; NMeV = CN[C@H](C(=O)O)C(C)C; Sar = CNCC(=O)O

Experiments:
NIH 3T3 cells [1] = assay: long-term growth inhibition assays (cytostatic and cytotoxic effects), cells carrying anti-khcs GSE vs control; assay type: cell-based, mouse; details: for resistance or sensitivity of GSE-carrying cells to the drug, long-term assay: four days in drug, then two or six days without drug, anti-khcs cells vs control; for sensitivity of anti-khcs GSE cells to the drug (surviving cells as percentage of growth without drug): 2x10^4 cells per dish, five days in drug, FIGS. 12A and 12B
Experimental: Cells were incubated with the drugs for 4 days, followed by 2 or […] in drug-free media, as indicated. Cell growth, presented in arbitrary units, was evaluated by methylene blue staining.
To further characterize the nature of drug resistance conferred by anti-khcs, the above-described short-term growth inhibition assays were followed by long-term growth inhibition assays which measured both the cytostatic and the cytotoxic effects of different drugs. These assays were carried out by incubating the cells for four days in the presence of the drugs, followed by either two or six days in the absence of the drug, to allow for programmed cell death, which is frequently associated with recovery from drug-induced inhibition (Kung et al., 1990, Cancer Res. 50: 7307-7317).
Thus, in the experiment shown in FIGS. 12A and 12B, NIH 3T3 cells carrying the anti-khcs GSE and control cells without the GSE were plated at a density of 2×10^4 per culture dish and grown for five days in concentrations of either colchicine or vinblastine. The cells were then fixed and stained, and the number of surviving cells determined and shown as a percentage of cell growth in the absence of drug.

NIH 3T3 cells [2] = assay: short-term (4-day) growth inhibition assay, methylene blue staining, cells carrying anti-khcs GSE vs insert-free vector control; assay type: cell-based, mouse; details: NIH 3T3 infected with anti-khcs virus vs insert-free vector; 4 days drug exposure
Experimental: Drug concentrations are given in ng/mL.
A 1:1 mixture of ecotropic and amphotropic packaging cells was transfected with retroviral vector pLNCX carrying the anti-khcs GSE using a standard calcium phosphate procedure. […] This virus-containing supernatant was used to infect NIH 3T3 cells, 10 times with 12 hour intervals. Control cells were infected in parallel with the insert-free vector virus obtained by the same procedure. […] DNA from the infected cells was analyzyed by Southern blot hybridization with a virus-specific probe.
The infected cell population described in Example 7 were analyzed for resistance to several anticancer drugs by a growth inhibition assay. For this assay, 10^4 cells per well were plated in 12-well plated and exposed to increasing concentrations of different drugs for 4 days. Relative cell numbers were measured by the methylene blue staining assay (Perry et al., 1992, Mutation Res. 286: 189-197). […] All of these drugs are known to induce DNA damage, albeit by different mechanism.

NIH 3T3 cells [3] = assay: dynamics of cell growth during and after drug treatment, anti-khcs GSE cells vs control; assay type: cell-based, mouse; details: for effect of the drug in continuous presence / cell death after removal of the drug: 250 ng/mL etoposide, 20 ng/mL camptothecin, 40 ng/mL colchicine; for effect of anti-khcs GSE on the growth-inhibitory effect of the drug: 5 or 11 days continuous exposure, anti-khcs cells vs control; for cell death after removal of the drug: control cells; for cell death after removal of the drug / effect of anti-khcs GSE on cell death after release from the drug: drug removed after 5 days; for overall change in drug resistance conferred by anti-khcs GSE, release vs continuous exposure: long-term, 11 days
Experimental: Cell growth was measured as described for FIGS. 12A and 12B. Cells were plated and one day later (indicated by the first arrow) the indicated drugs were added at concentrations as described. Four days later (indicated by the second arrow), the drugs were removed from some of the plates. Solid lines indicate cell growth in the continuous presence of the drug, and broken lines indicate cell growth after removal of the drug.
In these experiments (shown in FIGS. 13A through 13D), NIH 3T3 cells were treated with the corresponding drugs for 5 days, and then incubated for additional 6 days either in the presence or in the absence of the drug. […] After 11 days of drug exposure the total cell number in the etoposide- or camptothecin-treated populations of control cells was a little lower than after 5 days of drug exposure, but in the colchicine-treated control cell population a slow cell growth was still detectable. In the experiments where the drug was removed after 5 days, cell growth was initially activated for all three drugs.
The expression of the anti-khcs GSE had different effects on the growth inhibition and recovery-associated cell death induced by these drugs.

NIH 3T3 cells [4] = assay: etoposide resistance with GSE under IPTG-inducible promoter; assay type: cell-based, mouse; details: 5 mM IPTG; IPTG-dependent; vs insert-free vector
From the text: The components of this system include an enhancer-dependent promoter, combined in cis with multiple repeats of the bacterial lac operator, and a gene expressing LAP265, an artificial regulatory protein derived from the lac repressor and a mammalian transcriptional activator. The anti-khcs GSE was cloned into the plasmid pX6.CLN, which contains the inducible promoter used by Baim et al., supra (a gift of Dr. T. Shenk) which expresses the inserts from an enhancerless SV40 early gene promoter supplemented with 21 repeats of the lac operator sequence. The resulting plasmid, which contains no selectable markers, was co-transfected into NIH 3T3 cells together with the LNCX plasmid carrying the neo gene.

NIH 3T3 cells [5] = assay: etoposide selection after retroviral transduction of GSEs; assay type: cell-based, mouse; details: recloned proviral inserts in LNCX vector
Experimental: This selection was carried out directly on virus-producing packaging cells, in the expectation that cells whose resistant phenotype is caused by the GSE expression will produce virus particles carrying such a GSE. The mixture of amphotropic and ecotropic packaging cells was transfected with the cDNA library in the LNCX vector, prepared according to Example 1, and the virus was allowed to spread through the population for 9 days.
The proviral inserts contained in the etoposide-selected NIH 3T3 cells were analyzed by PCR. […] Individual PCR-amplified fragments were recloned into the LNCX vector in the same position and orientation as in the original plasmid, as illustrated in FIG. 4C. […] These GSEs wee named anti-khcs, VPA and VP9-11.

[6] = tested on: primary human fibroblasts; assay: life span of primary human skin fibroblasts after infection with GSE virus; assay type: cell-based
Experimental: Primary human fibroblasts, derived from human skin, were obtained from the Aging Cell Repository of the National Institutes of Aging. The cells were grown in DMEM with 20% fetal calf serum supplemented with twice the concentration of amino acids and vitamins normally used to supplement normal human skin fibroblast growth in culture. Cells at the fifth passage were infected with either the control pLNCX virus or the virus carrying mouse anti-khcs GSE (produced as described above in Example 3).

NIH 3T3 cells [7] = assay: growth parameters of multiply-infected cells; assay type: cell-based, mouse; details: multiple integrated provirus copies; normalised after several passages
From the text: A 1:1 mixture of ecotropic and amphotropic packaging cells was transfected with retroviral vector pLNCX carrying the anti-khcs GSE using a standard calcium phosphate procedure. Two weeks later, the virus titer, as measured by the formation of G418- resistance NIH 3T3 colonies, reached >10^6 infectious units per mL as a result of “ping-pong” infection (see Bodine et al., 1990, Proc. Natl. Acad. Sci. USA 87: 3738-3742). This virus-containing supernatant was used to infect NIH 3T3 cells, 10 times with 12 hour intervals. Control cells were infected in parallel with the insert-free vector virus obtained by the same procedure. […] DNA from the infected cells was analyzyed by Southern blot hybridization with a virus-specific probe.
At this stage, the cells were frozen and used for the experiments described below.

[8] = tested on: primary mouse embryo fibroblasts (MEF); assay: life span / immortalization of senescent primary fibroblasts after infection with GSE virus; assay type: cell-based
Experimental: The virus carrying the anti-khcs GSE was treated for the ability to increase the life span of primary mouse embryo fibroblasts (MEF). MEF were prepared from 10 day old mouse embryos by a standard trypsinization procedure and senescent cells were frozen at different passages prior to crisis. Senescent MEF, two weeks before crisis, were infected with recombinant retroviruses carrying LNCX vector either without an insert or with anti-khcs.

## COc1cccc2c1C(=O)c1c(O)c3c(c(O)c1C2=O)C[C@@](O)(C(=O)CO)C[C@@H]3O[C@H]1C[C@H](N)[C@H](O)[C@H](C)O1 [Adriamycin, doxorubicin]
NIH 3T3 cells [1]
  resistance or sensitivity of GSE-carrying cells to the drug, long-term assay: resistant

## Cc1c2oc3c(C)ccc(C(=O)N[C@@H]4C(=O)N[C@H](C(C)C)C(=O)N5CCC[C@H]5C(=O)N(C)CC(=O)N(C)[C@@H](C(C)C)C(=O)O[C@@H]4C)c3nc-2c(C(=O)N[C@@H]2C(=O)N[C@H](C(C)C)C(=O)N3CCC[C@H]3C(=O)N(C)CC(=O)N(C)[C@@H](C(C)C)C(=O)O[C@@H]2C)c(N)c1=O [actinomycin D] (I: T[dV]P[Sar][NMeV] / II: T[dV]P[Sar][NMeV]; ester I:1-I:C, II:1-II:C; linker I:N-II:N via Actinocin(9to1))
NIH 3T3 cells [2]
  change in resistance to the cytostatic effects of the drug induced by anti-khcs GSE: no increase in resistance was observed

## CC[C@@]1(O)C(=O)OCc2c1cc1n(c2=O)Cc2cc3ccccc3nc2-1 [camptothecin]
NIH 3T3 cells [3]
  effect of the drug in continuous presence: growth inhibition but little detectable cell death
  effect of anti-khcs GSE on the growth-inhibitory effect of the drug: small decrease of the growth-inhibitory effect
  cell death after removal of the drug: extensive cell death
  effect of anti-khcs GSE on cell death after release from the drug: slight increase in cell death
  overall change in drug resistance conferred by anti-khcs GSE, release vs continuous exposure: no significant long-term difference

## COc1cc2c(c(OC)c1OC)-c1ccc(OC)c(=O)cc1[C@@H](NC(C)=O)CC2 [colchicine]
NIH 3T3 cells [2]
  change in resistance to the cytostatic effects of the drug induced by anti-khcs GSE: no increase in resistance was observed
NIH 3T3 cells [1]
  sensitivity of anti-khcs GSE cells to the drug (surviving cells as percentage of growth without drug): hypersensitivity
  resistance or sensitivity of GSE-carrying cells to the drug, long-term assay: hypersensitive
NIH 3T3 cells [3]
  effect of the drug in continuous presence: growth inhibition but little detectable cell death
  effect of anti-khcs GSE on the growth-inhibitory effect of the drug: more susceptible to the growth-inhibitory effect
  cell death after removal of the drug: only limited cell death

## COc1cc([C@@H]2c3cc4c(cc3[C@@H](O[C@@H]3O[C@@H]5CO[C@@H](C)O[C@H]5[C@H](O)[C@H]3O)[C@H]3COC(=O)[C@H]23)OCO4)cc(OC)c1O [etoposide]
NIH 3T3 cells [1]
  resistance or sensitivity of GSE-carrying cells to the drug, long-term assay: resistant
NIH 3T3 cells [3]
  effect of the drug in continuous presence: growth inhibition but little detectable cell death
  effect of anti-khcs GSE on the growth-inhibitory effect of the drug: decreased the growth-inhibitory effect of the drug to the same, relatively small extent
  cell death after removal of the drug: extensive cell death
  effect of anti-khcs GSE on cell death after release from the drug: decreased the amount of cell death
  overall change in drug resistance conferred by anti-khcs GSE, release vs continuous exposure: much more pronounced after release from the drug

## CC[C@]1(O)C[C@@H]2CN(CCc3c([nH]c4ccccc34)[C@@](C(=O)OC)(c3cc4c(cc3OC)N(C)[C@H]3[C@@](O)(C(=O)OC)[C@H](OC(C)=O)[C@]5(CC)C=CCN6CC[C@]43[C@@H]65)C2)C1 [vinblastine]
NIH 3T3 cells [1]
  sensitivity of anti-khcs GSE cells to the drug (surviving cells as percentage of growth without drug): hypersensitivity
  resistance or sensitivity of GSE-carrying cells to the drug, long-term assay: hypersensitive

B1: anti-khcs: genetic suppressor element encoding antisense RNA for mouse kinesin heavy chain gene khcs (SEQ.ID.No.:3), in LNCX retroviral vector (nucleic acid)
antisense: CTTGATCCCTTCTGGTTGATGCCAGAAGCTCTTCCTGATCCAGCATTTGTATCTTCAATTTCTCTACCAATTGGCTTTGTTGGTTAATCTCTTCATCCTTGTCATCAAGTTGTTTATACAATTTAGCAAGTTCTTCTTCACACTTTCTTCTTTCAGCATCGGTAAAACTACCAGCCATTCCGACTGCAGCAGCTGGTTTATCACTGGTAATAGCAATATCTTTATCCGCTGTGAAGGCTTCCAAATTAGCTTTCTCTTTGTCAAACTGCTCATCAATAGGCACTGTCTCCCCGTTACGCCAACGGTTTAGCTCGTTTTCCAGCCACT
modifications: in LNCX retroviral vector
NIH 3T3 cells [4]
  etoposide resistance of transfectants: clearly increased etoposide resistance
NIH 3T3 cells [5]
  ability to confer etoposide resistance after retroviral transduction: induce etoposide resistance
[6]; after control cells went into crisis
  additional passages survived: at least five
[6]; infected at fifth passage, four passages later
  growth when control cells went into crisis: continued to grow
NIH 3T3 cells [7]
  growth rate and plating efficiency of freshly-obtained multiply-infected cells: decreased growth rate and plating efficiency
[8]; microscopic
  features of neoplastic transformation in post-crisis cells: no microscopically visible features of neoplastic transformation
[8]; relative to uninfected MEF or control LNCX virus, two weeks after crisis
  proportion of cells surviving the crisis: great increase
